The values that follow come from US8927531B2, “Indanyloxydihydrobenzofuranylacetic acids” (Boehringer Ingelheim International GmbH, priority 2013, dated 2015).

The target in this assay is human GPR40 receptor (Homo sapiens, UniProt O14842). Put plainly: IP1 accumulation measurements using the IPOne assay system in 1321N1 cells stably expressing human GPR40 receptor. To be noted: stimulation 1 h at 37° C. The class given is cell-based. Here is the method:
IP1 accumulation measurements using the IPOne assay system—1321N1 cells stably expressing human GPR40 receptor (Euroscreen, Belgium) are seeded 24 h before the assay in white 384-well plates in culture medium containing 10% FCS, 1% Na-Pyruvate and 400 μg/mL G418. IP1 is assayed according to the manufacturer's description (Cisbio Bioassays, France). In brief, the assay is started by substitution of the culture medium by stimulation buffer (Hepes 10 mM, CaCl2 1 mM, MgCl2 0.5 mM, KCl 4.2 mM, NaCl 146 mM, glucose 5.5 mM and LiCl 50 mM, pH 7.4). Cells are stimulated for 1 h at 37° C., 5% CO2 by addition of the compounds that are diluted in stimulation buffer containing LiCl. Assays are stopped by adding HTRF-conjugates (IP1-d2 and Anti-IP1 cryptate Tb) and lysis buffer, provided by the manufacturer. After an incubation time of 1 h at room temperature plates are measured using an EnVision™, Perkin Elmer. The obtained fluorescence ratios at 665/615 […] are then used to calculate the pEC50 values using Assay Explorer 3.3 Software (Accelrys, Inc.) by interpolation using an IP1 reference curve and subsequent sigmoidal curve fitting allowing for a variable hill slope.

Chain of human GPR40 receptor (O14842 whole entry): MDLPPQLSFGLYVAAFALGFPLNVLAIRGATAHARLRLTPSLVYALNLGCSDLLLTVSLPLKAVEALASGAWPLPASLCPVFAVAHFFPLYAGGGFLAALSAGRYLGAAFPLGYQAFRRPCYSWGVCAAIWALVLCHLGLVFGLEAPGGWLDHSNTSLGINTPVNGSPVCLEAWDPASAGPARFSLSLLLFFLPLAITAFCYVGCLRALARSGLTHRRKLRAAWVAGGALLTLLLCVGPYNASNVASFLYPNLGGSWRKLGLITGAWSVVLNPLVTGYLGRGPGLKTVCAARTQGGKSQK

On to `CC1(O)CCN(Cc2c(C(F)(F)F)ccc3c2CC[C@H]3Oc2ccc3c(c2)OC[C@H]3CC(=O)O)CC1` [Example 14, {(S)-6-[(R)-4-(4-Hydroxy-4-methyl-piperidin-1-ylmethyl)-5-trifluoromethyl-indan-1-yloxy]-2,3-dihydro-benzofuran-3-yl}-acetic acid], for which the concentration giving a half-maximal response (EC50) (commonly the concentration that produces a half-maximal response) was 15 nM. For the compound `O=C(O)C[C@@H]1COc2cc(O[C@@H]3CCc4c3ccc(C(F)(F)F)c4CN3CCC4(CC3)CC4)ccc21` [Example 8, {(S)-6-[(R)-4-(6-Aza-spiro[2.5]oct-6-ylmethyl)-5-trifluoromethyl-indan-1-yloxy]-2,3-dihydro-benzofuran-3-yl}-acetic acid], the EC50 amounted to 5 nM. On to `CCC(=O)N1CCN(Cc2c(C(F)(F)F)ccc3c2CC[C@H]3Oc2ccc3c(c2)OC[C@H]3CC(=O)O)CC1` [Example 21, {(S)-6-[(R)-4-(4-Propionyl-piperazin-1-ylmethyl)-5-trifluoromethyl-indan-1-yloxy]-2,3-dihydro-benzofuran-3-yl}-acetic acid], for which it took 12 nM to reach a half-maximal effect (EC50). Compound `O=C(O)C[C@@H]1COc2cc(O[C@@H]3CCc4c3ccc(C(F)(F)F)c4CN3CCc4ncsc4C3)ccc21` [Example 30, {(S)-6-[(R)-4-(6,7-Dihydro-thiazolo[5,4-c]pyridin-5-ylmethyl)-5-trifluoromethyl-indan-1-yloxy]-2,3-dihydro-benzofuran-3-yl}-acetic acid] displayed an EC50 of 3 nM.
